In PubChem BioAssay AID743095 (The Scripps Research Institute Molecular Screening Center, 2013) one finds IC50 data, which are given here for 57 compounds.

The source made the active and inactive calls. How the calls were made is not given here.

In the assay the target is Galanin receptor type 3 (Homo sapiens) (UniProt O60755). The assay can be described thus: GalR3 antagonist potency curves, late-stage follow-up, cell-based, fluorescence, dose response (AID 743095). To be noted: GalR3 cell line, fluorescence antagonist assay.
Usually IC50 stands for the concentration that gives 50% inhibition. `O=C(Nc1nc(-c2ccc(Cl)cc2Cl)cs1)c1ccc(OCC2CCCO2)cc1` (configuration not stated): the IC50 is 1080 nM.

With `CC(C)(C)NC(=O)COC(=O)c1snc(C(=O)NC2CCCCC2)c1N`, the IC50 is 3190 nM.

Consider `CC(=O)c1c(C)[nH]c(C(=O)COc2cc(C)ccc2C(C)C)c1C`, for which the IC50 is 3580 nM.

With `Cc1cccc(Cl)c1NC(=O)N1CCCN(c2nc3ccc(Cl)cc3s2)CC1`, the half-maximal inhibitory concentration (IC50) was 1950 nM.

For the compound `S=C(NCCc1ccccc1)Nc1cccc2cnccc12`, the IC50 was 2620 nM.

As for `COc1ccc(C(=O)CSc2nnc(Cn3cnc4ccccc43)o2)cc1`, the IC50 was 3180 nM.

Take `O=C(CSc1nnnn1C1CC2CCC1C2)Nc1ccnc2ccccc12` (configuration not stated): the IC50 is 140 nM.

As to `Cc1ccccc1Cn1c(C)nc2ccccc21`, the IC50 was 3410 nM.

Consider `CCOC(=O)Cc1csc(NC(=O)c2cc(=O)c3ccccc3o2)n1`, for which the IC50 was 5810 nM.

On to `Nc1cc(-c2ccc(Br)cc2)nn1Cc1ccccc1`, for which the IC50 was 3620 nM.

As to `Cc1nn(C)c(C)c1CN(C)S(=O)(=O)c1ccc2ccccc2c1`, the IC50 is 1230 nM.

Take `COc1ccc(NS(=O)(=O)c2ccc(NC(=O)c3ccc(CN4CCOCC4)cc3)cc2)cc1`: the IC50 was 3000 nM.

For the compound `CC1CC(=O)NN=C1c1ccc(N)c([N+](=O)[O-])c1` (configuration not stated), the IC50 was 596 nM.

`CC1(C)CC2CC(C)(CN2S(=O)(=O)c2ccc(C(=O)Nc3cccc(S(=O)(=O)N4CCOCC4)c3)cc2)C1` (configuration not stated): the IC50 was 2110 nM.

For the compound `CC(C)(C)CN1CCN(Cc2nc(-c3ccc(F)cc3)cs2)CC1CCO` (configuration not stated), the 50% inhibitory concentration (IC50) is 3240 nM.

Turning to `CC(=O)c1ccc(N2CCN(C(=S)Nc3ccc(Oc4ccccc4)cc3)CC2)cc1`, the IC50 was 1230 nM.

With `COc1cc(CSc2nnnn2-c2ccc(C)cc2)cc(OC)c1OC`, the IC50 is 3440 nM.

With `Cc1nn(C)c(Cl)c1NC(=O)OCc1ccc(Cl)cc1Cl`, the IC50 is 4160 nM.

Consider `CCN(CC)S(=O)(=O)c1cc(NC(=O)CNc2cccc(S(=O)(=O)N3CCOCC3)c2)ccc1C`, for which the IC50 is 3560 nM.

For the compound `Cn1nc(C(C)(C)C)cc1C(=O)NCc1ccc(N2CCCC2=O)cc1`, the IC50 was 5270 nM.

Turning to `COc1cccc2[nH]c3c(N4CCC(C)CC4)ncnc3c12`, the IC50 is 2760 nM.

For `CCCOc1ccc(CSc2nc3ccccc3[nH]2)cc1`, the IC50 is 1200 nM.

`CNc1ccccc1C(C)(C)c1cc(-c2ccc(F)cc2)no1`: the IC50 is 3830 nM.

For the compound `Cc1ccc(Oc2ccc(OCC(=O)Nc3ccncc3)cc2)cc1`, the IC50 was 428 nM.

For `Cc1cc(C)nc(SCC(=O)Nc2ccnc3ccccc23)n1`, the IC50 is 1170 nM.

Turning to `CCCOC(=O)c1ccc(OCC(O)Cn2c(C)nc3ccccc32)cc1` (configuration not stated), the IC50 is 3270 nM.

For `Nc1nonc1-n1nnc(C(=O)N/N=C/c2cc(Br)ccc2O)c1CSC1=NCCS1`, the IC50 was 6280 nM.

Consider `COc1ccc(OC)c(CCNC(=O)Cn2nc(C)c3c(C)n(-c4ccc(C)cc4)nc3c2=O)c1`, for which the IC50 was 3800 nM.

On to `Cc1[nH]c(=O)c(C#N)cc1-c1ccccc1`, for which the IC50 result was “inactive”.

With `O=S(=O)(NCc1ccncc1)c1ccc(Br)s1`, the IC50 was 1800 nM.

In the case of `CCOc1nc(C#N)nc(N2CCCCC2)n1`, the 50% inhibitory concentration (IC50) is 2820 nM.

As to `Cc1nn(C)c(Nc2ccc(Br)cc2)c1Br`, the IC50 is 4140 nM.

With `COc1ccc(CN2CCC(C(=O)Nc3ccc(Oc4ccccc4)nc3)CC2)cc1F`, the IC50 is 6970 nM.

With `COc1ccc(-n2c(C)cc(C(=O)COC(=O)Cn3cnc4ccccc43)c2C)cc1`, the IC50 was > 29900 nM (inactive).

For `NC(=O)c1c(-c2ccc(Cl)cc2Cl)csc1NC(=O)Cc1ccccc1`, the IC50 was 2370 nM.

Regarding `Cc1ccccc1-c1cc(C(=O)Nc2sc(C(=O)OC(C)C)c(C)c2C#N)c2ccccc2n1`, the IC50 was 1130 nM.

As for `CC(C)(C)c1ccc(C(=O)Nc2ccc(Oc3cccnc3)nc2)cc1`, the IC50 is 1140 nM.

For `O=C(Cc1ccc(Cl)cc1Cl)Nc1ccncc1Cl`, the IC50 was 3890 nM.

Turning to `CCOc1cc(S(=O)(=O)NCc2ccncc2)ccc1Cl`, the IC50 was 269 nM.

On to `COc1ccc(CCNc2ncnc3sccc23)cc1OC`, for which the IC50 is 438 nM.

As to `CCCCCn1c(=O)[nH]c2cc(C(=O)N3CCN(Cc4ccc5c(c4)OCO5)CC3)ccc2c1=O`, the IC50 is 143 nM.

For `CSc1ccc(C(=O)C2CCCN(C(=O)CCc3c(C)nn(C)c3C)C2)cc1` (configuration not stated), the IC50 is 4150 nM.

In the case of `CC(C)(C)c1ccc(-n2ncc3c2CCCC3NC(=O)C2(C(N)=O)CC2)cc1` (configuration not stated), the IC50 is 2000 nM.

Take `Cc1cc(CSc2ccccc2)ccc1NC(=O)c1ccc(CN2CCOCC2)cc1`: the IC50 was 529 nM.

Turning to `Fc1ccc(NC(=S)N2CCCN(c3ccc(C(F)(F)F)cn3)CC2)c(F)c1`, the IC50 was 402 nM.

Consider `COc1cc2c(cc1OC)[C@@H]1C(=O)c3ccc4c(c3O[C@@H]1CO2)C[C@H](C(C)C)O4`, for which the IC50 was 12.3 nM.

On to `COc1ccc(CN(C)c2ccc(S(=O)(=O)N3CCN(C)CC3)cc2[N+](=O)[O-])cc1OC`, for which the IC50 was 448 nM.

For `Cc1cc(C(=O)CSc2nc(N)cc(=O)[nH]2)c(C)n1-c1ccc(OC(F)F)cc1`, the IC50 is 1350 nM.

As to `O=C(COc1ccc(C(=O)c2ccccc2)cc1)Nc1cccnc1`, the IC50 was 1240 nM.

`O=C(CSc1nnc(Cn2nnc3ccccc32)o1)N(Cc1ccc(F)cc1)c1ccccc1`: the IC50 was 1240 nM.

For `CC(=O)c1cn(CC(=O)NCCc2c[nH]c3ccccc23)c2ccccc12`, the IC50 is 4140 nM.

As for `CCOC(=O)c1[nH]c2ccc(OC)cc2c1NS(=O)(=O)c1ccc(Cl)s1`, the IC50 was 3140 nM.

In the case of `N#Cc1cc(-c2ccccc2)oc1NC(=O)c1ccco1`, the IC50 entry is “inactive”.

On to `CCCCc1ccc(NC(=O)c2ccc(N(C)S(C)(=O)=O)cc2)cc1`, for which the IC50 is 696 nM.

As for `Cc1oc(-c2ccc(Cl)cc2)nc1CSCC(=O)NC1CCN(Cc2ccccc2)CC1`, the IC50 is 1320 nM.

Turning to `NC(=O)c1nnn(Cc2cc(Cl)c(C(=O)c3ccc(Cl)cc3)c(Cl)c2)c1N`, the IC50 was 3440 nM.

For `Cc1nc2ccccc2n1Cc1ccc(Cl)cc1`, the IC50 was 1260 nM.
